Like-named read-outs stand apart in the source and are kept apart here.
What was measured:
[1] = system: HCV genotype 1b I389Iuc-ubi-neo/NS3-3′/5.1 replicon in Huh5.2 cells; assay: microbe, parasite or virus in culture; assay type: cell-based, Hepatitis C Virus; details: for Selectivity index (CC50/EC50): Huh5.2 replicon assay
Experimental: (§1) Antiviral efficacy against genotype 1 HCV may be tested as follows: One day before addition of the test article, Huh5.2 cells, containing the HCV genotype 1b I389Iuc-ubi-neo/NS3-3′/5.1 replicon (Vrolijk et al., 2003) and subcultured in cell growth medium [DMEM (Cat No. 41965039) supplemented with 10% FCS, 1% non-essential amino acids (11140035), 1% penicillin/streptomycin (15140148) and 2% Geneticin (10131027); Invitrogen] at a ratio of 1.3-1.4 and grown for 3-4 days in […] tissue culture flasks (Techno Plastic Products), were harvested and seeded in assay medium (DMEM, 10% FCS, 1% non-essential amino acids, 1% penicillin/streptomycin) at a density of 6500 cells/well (100 uL/well) in 96-well tissue culture microtitre plates (Falcon, Beckton Dickinson for evaluation of the anti-metabolic effect and CulturPlate, Perkin Elmer for evaluation of antiviral effect). The microtitre plates are incubated overnight (37° C., 5% CO2, 95-99% relative humidity), yielding a non-confluent cell monolayer.
(§2) Dilution series are prepared; each dilution series is performed in at least duplicate. Following assay setup, the microtitre plates are incubated for 72 hours (37° C., 5% CO2, 95-99% relative humidity).
For the evaluation of antiviral effects, assay medium is aspirated and the cell monolayers are washed with PBS. The wash buffer is aspirated, 25 uL of Glo Lysis Buffer (Cat. No. E2661, Promega) is added after which lysis is allowed to proceed for 5 min at room temperature. Subsequently, 50 uL of Luciferase Assay System (Cat. No. E1501, Promega) is added and the luciferase luminescence signal is quantified immediately (1000 ms integration time/well, Safire^2, Tecan). Relative luminescence units are converted to percentage of untreated controls.
(§3) The selectivity index (SI), indicative of the therapeutic window of the compound, is calculated as CC50/EC50.
(§4) Compounds were analysed in the replicon assay using Huh5.2 cells as described in the General Methods.

[2] = system: Huh5.2 cells; assay: Anti-metabolic effect (MTS) in the replicon cell line; details: Huh5.2 cells, 72 hours, MTS metabolic activity
Experimental: as §1, §2
(§5) For the evaluation of anti-metabolic effects, the assay medium is aspirated, replaced with 75 uL of a 5% MTS (Promega) solution in phenol red-free medium and incubated for 1.5 hours (37° C., 5% CO2, 95-99% relative humidity). Absorbance is measured at a wavelength of 498 nm (Safire^2, Tecan) and optical densities (OD values) are converted to percentage of untreated controls.
as §3, §4

[3] = Microsome stability assay, human liver microsomes; assay type: in vitro ADME; details: for stability in human liver microsomes compared to sanglifehrin A (in words): compared to sanglifehrin A (5)
Experimental: (§6) Mouse or human liver microsomes were diluted with buffer C (0.1 M Potassium Phosphate buffer, 1.0 mM EDTA, pH 7.4) to a concentration of 2.5 mg/mL. Microsomal stability samples were then prepared by adding 50 uL of 5 uM compound spiking solution (0.5 uL 10 mM DMSO stock solution in 9.5 uL ACN, added to 990 uL Buffer C) to 50 μL of microsomal solution (2.5 mg/mL), 110 uL Buffer C and mixed well. All samples were pre-incubated for approximately 15 minutes at 37° C. Following this, the reaction was initiated by adding 40 uL of the NADPH solution (12.5 mM) with gentle mixing. Aliquots (40 uL) were removed at 0, 15, 30, 45 and 60 minutes and quenched with ACN containing internal standard (120 uL). Protein was removed by centrifugation (4000 rpm, 15 min) and the sample plate analysed for compound concentration by LC-MS/MS. Half-lives were then calculated by standard methods, comparing the concentration of analyte wth the amount originally present.
(§7) Stability of the compounds in human and mouse liver microsomes was analysed as described in the General Methods. Sanglifehrin A, 5 was included as a comparison.

[4] = Microsome stability assay, mouse liver microsomes; assay type: in vitro ADME; details: for stability in mouse liver microsomes compared to sanglifehrin A (in words): compared to sanglifehrin A (5)
Experimental: as §6, §7

[5] = in vitro; details: human
Experimental: as §1, §2, §5, §3, §4

[6] = system: HBV; details: cited from earlier work
[7] = system: HIV-1; details: clinical, cited from earlier work
[8] = human, in vivo; cited from earlier work
[9] = target: cyclophilin A (CyPA) (Homo sapiens, UniProt P62937); details: relative to CsA; cited from earlier work
cyclophilin A (CyPA), sequence (P62937 whole entry): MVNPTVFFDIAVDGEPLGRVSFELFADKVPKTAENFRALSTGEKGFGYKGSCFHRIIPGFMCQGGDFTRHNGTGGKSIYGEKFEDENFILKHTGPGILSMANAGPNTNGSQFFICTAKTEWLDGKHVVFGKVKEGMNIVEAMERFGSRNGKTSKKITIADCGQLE

[10] = Huh5.2 cells, HCV genotype 1b replicon, 72 hours, luciferase signal, read-out: EC50
[11] = human liver microsomes, NADPH, 37° C.
[12] = mouse liver microsomes, NADPH, 37° C.
[13] = Hepatitis C virus, Huh-5-2, Huh5.2 cells, HCV genotype 1b replicon, 72 hours, luciferase signal, read-out: EC50
[14] = pH 7.4, human liver microsomes, NADPH, 37° C.
[15] = pH 7.4, mouse liver microsomes, NADPH, 37° C.

Row | Compound | stability in human liver microsomes compared to sanglifehrin A (in words) [3] | potency in the Huh5.2 replicon assay (in words) [1] | EC50 [1, 13] [µM] | Selectivity index (CC50/EC50) [1] | CC50 [5] [µM] | half-life [3, 14] [min] | stability in mouse liver microsomes compared to sanglifehrin A (in words) [4] | half-life [4, 15] [min] | also measured
1 | 58-des(3-hydroxyphenyl)-58-(3-hydroxy(2-pyridyl)-sanglifehrin A [Compound 19] | increased stability | – | – | – | – | – | – | – | EC50 [1, 10]: 24.3 µM; CC50 [2]: 48.1 µM; Human liver microsome half life [3, 11]: 10.37 min; Mouse liver microsome half life [4, 12]: 4.71 min
2 | CC[C@H]1C[C@H](C)[C@@]2(NC1=O)O[C@@H](C[C@H](O)[C@@H](C)CC/C=C/C=C(\C)[C@@H]1C/C=C/C=C/[C@H](O)[C@H](C)[C@@H](O)[C@@H](CCC(C)=O)C(=O)N[C@@H](C(C)C)C(=O)N[C@@H](Cc3cc(O)cc(F)c3)C(=O)N3CCCC(N3)C(=O)O1)[C@H](C)[C@H](O)[C@@H]2C (stereo partly shown) [Compound 14, 63-Fluoro Sanglifehrin a] | increased stability | very potent | 0.135 | 121 | 12.8 | 9.32 | more stable | 9.78 | –
3 | CC[C@H]1C[C@H](C)[C@@]2(NC1=O)O[C@@H](C[C@H](O)[C@@H](C)CC/C=C/C=C(\C)[C@@H]1C/C=C/C=C/[C@H](O)[C@H](C)[C@@H](O)[C@@H](CCC(C)=O)C(=O)N[C@@H](C(C)C)C(=O)N[C@@H](Cc3cc(O)c(F)c(F)c3)C(=O)N3CCCC(N3)C(=O)O1)[C@H](C)[C@H](O)[C@@H]2C (stereo partly shown) [Compound 15, 62,63-Fluoro Sanglifehrin A] | increased stability | very potent | 0.195 | 88 | 16.6 | 10.8 | more stable | 9.22 | –
4 | CC[C@H]1C[C@H](C)[C@@]2(NC1=O)O[C@@H](C[C@H](O)[C@@H](C)CC/C=C/C=C(\C)[C@@H]1C/C=C/C=C/[C@H](O)[C@H](C)[C@@H](O)[C@@H](CCC(C)=O)C(=O)N[C@@H](C(C)C)C(=O)N[C@@H](Cc3ccc(F)c(O)c3)C(=O)N3CCCC(N3)C(=O)O1)[C@H](C)[C@H](O)[C@@H]2C (stereo partly shown) [Compound 16, 62-Fluoro Sanglifehrin A] | increased stability | very potent | 0.89 | 32 | 29.7 | 6.61 | – | 5.48 | –
5 | CC[C@H]1C[C@H](C)[C@@]2(NC1=O)O[C@@H](C[C@H](O)[C@@H](C)CC/C=C/C=C(\C)[C@@H]1C/C=C/C=C/[C@H](O)[C@H](C)[C@@H](O)[C@@H](CCC(C)=O)C(=O)N[C@@H](C(C)C)C(=O)N[C@@H](Cc3ccc(C)c(O)c3)C(=O)N3CCCC(N3)C(=O)O1)[C@H](C)[C@H](O)[C@@H]2C (stereo partly shown) [Compound 17, 62-Methyl Sanglifehrin A] | increased stability | very potent | 0.083 | 143 | 11.6 | 9.5 | more stable | 9.67 | –
6 | CC[C@H]1C[C@H](C)[C@@]2(NC1=O)O[C@@H](C[C@H](O)[C@@H](C)CC/C=C/C=C(\C)[C@@H]1C/C=C/C=C/[C@H](O)[C@H](C)[C@@H](O)[C@@H](CCC(C)=O)C(=O)N[C@@H](C(C)C)C(=O)N[C@@H](Cc3ccccc3)C(=O)N3CCCC(N3)C(=O)O1)[C@H](C)[C@H](O)[C@@H]2C (stereo partly shown) [Compound 18, 61-Deshydroxy Sanglifehrin A] | increased stability | – | 3.4 | – | 11.7 | – | – | – | half-life at 1 µM [3, 14]: 7.64 min; half-life at 1 µM [4, 15]: 3.46 min
7 | C/C=C/CC(C)C(O)C1C(=O)NC(CC)C(=O)N(C)CC(=O)N(C)C(CC(C)C)C(=O)NC(C(C)C)C(=O)N(C)C(CC(C)C)C(=O)NC(C)C(=O)NC(C)C(=O)N(C)C(CC(C)C)C(=O)N(C)C(CC(C)C)C(=O)N(C)C(C(C)C)C(=O)N1C (stereo not shown) [Cyclosporine A, 1, Cyclosporine A, reference compound] | – | less potent | – | – | – | – | – | – | EC50 ([1]; Hepatitis C virus, Huh-5-2, 72 h): 0.2 µM; IC50 against HBV ([6]; Xie et al., 2007): > 1.3 µg/mL
8 | C/C=C/C[C@@H](C)[C@@H](O)[C@H]1C(=O)N[C@@H](CC)C(=O)N(C)[C@H](C)C(=O)N(CC)[C@@H](C(C)C)C(=O)N[C@@H](C(C)C)C(=O)N(C)[C@@H](CC(C)C)C(=O)N[C@@H](C)C(=O)N[C@H](C)C(=O)N(C)[C@@H](CC(C)C)C(=O)N(C)[C@@H](CC(C)C)C(=O)N(C)[C@@H](C(C)C)C(=O)N1C [DEBIO-025] | – | – | – | – | – | – | – | – | IC50 ([6]; Ptak et al. 2008, read-out: IC50 against HBV): 4.1 µM; reduction of HIV-1 RNA levels (in words) ([7]; 27 of the treated patients (Steyn et al., 2006)): no reduction; reduction of HIV-1 RNA levels ([7]; in nine patients (Steyn et al., 2006)): ≥ 0.5 log 10 copies/mL; reduction of HIV-1 RNA levels ([7]; in two patients (Steyn et al., 2006)): > 1 log 10 copies/mL; discontinuation of treatment caused by hyperbilirubinemia [8]: 4 out of 16
9 | CC(=O)CC[C@H]1C(=O)N[C@@H](C(C)C)C(=O)N[C@@H](Cc2cccc(O)c2)C(=O)N2CCC[C@H](N2)C(=O)O[C@H](/C(C)=C/CO)C/C=C/C=C/[C@H](O)[C@H](C)[C@H]1O [Hydroxymacrocycle, 6, reference compound] | – | – | 8.4 | 9.9 | 83.6 | – | – | – | –
10 | CC[C@H]1C[C@H](C)[C@@]2(NC1=O)O[C@@H](C[C@H](O)[C@@H](C)CC/C=C/C=C(\C)[C@@H]1C/C=C/C=C/[C@H](O)[C@H](C)[C@@H](O)[C@@H](CCC(C)=O)C(=O)N[C@@H](C(C)C)C(=O)N[C@@H](Cc3cccc(O)c3)C(=O)N3CCC[C@H](N3)C(=O)O1)[C@H](C)[C@H](O)[C@@H]2C [Sanglifehrin A, 5, Sanglifehrin A, reference compound] | – | less potent | – | – | – | – | – | – | EC50 [1, 10]: 0.318 µM; CC50 [2]: 9.1 µM; Human liver microsome half life [3, 11]: 6.38 min; Mouse liver microsome half life [4, 12]: 6.15 min; higher affinity for CyPA compared to CsA [9]: approximately 20 fold

From patent publication US9271977B2, “Sanglifehrin derivatives and methods for their production” (NeuroVive Pharmaceutical AB, priority 2010, dated 2016)
